Measured values from US20210380938A1, “HUMAN BLOOD-BRAIN BARRIER MODEL DERIVED FROM STEM CELLS” (BIOCANT - CENTRO DE INOVAÇÃO EM BIOTECNOLOGIA, priority 2013, published 2021).

B1: Wnt7a: human recombinant protein Wnt7a, Wnt ligand (protein, UniProt O00755 32-349, looked up)
Protein Wnt-7a: LGASIICNKIPGLAPRQRAICQSRPDAIIVIGEGSQMGLDECQFQFRNGRWNCSALGERTVFGKELKVGSREAAFTYAIIAAGVAHAITAACTQGNLSDCGCDKEKQGQYHRDEGWKWGGCSADIRYGIGFAKVFVDAREIKQNARTLMNLHNNEAGRKILEENMKLECKCHGVSGSCTTKTCWTTLPQFRELGYVLKDKYNEAVHVEPVRASRNKRPTFLKIKKPLSYRKPMDTDLVYIEKSPNYCEEDPVTGSVGTQGRACNKTAPQASGCDLMCCGRGYNTHQYARVWQCNCKFHWCCYVKCNTCSERTEMYTCK
B2: Wnt3a: human recombinant protein Wnt3a, Wnt ligand (protein, UniProt P56704 19-352, looked up)
Protein Wnt-3a: SYPIWWSLAVGPQYSSLGSQPILCASIPGLVPKQLRFCRNYVEIMPSVAEGIKIGIQECQHQFRGRRWNCTTVHDSLAIFGPVLDKATRESAFVHAIASAGVAFAVTRSCAEGTAAICGCSSRHQGSPGKGWKWGGCSEDIEFGGMVSREFADARENRPDARSAMNRHNNEAGRQAIASHMHLKCKCHGLSGSCEVKTCWWSQPDFRAIGDFLKDKYDSASEMVVEKHRESRGWVETLRPRYTYFKVPTERDLVYYEASPNFCEPNPETGSFGTRDRTCNVSSHGIDGCDLLCCGRGHNARAERRREKCRCVFHWCCYVSCQECTRVYDVHTCK

Columns and labels:
[1] = test system: CD34+-derived endothelial cells; assay: Wnt signaling experiments: paracellular permeability of EC monoculture treated with Wnt ligands/agonists; type: cell-based, human; conditions: Wnt3a 6.25 ng/mL
Method: (§1) In a preferred embodiment for Wnt signaling experiments, mono- and co-culture systems were used. In monoculture, 8×10^4 CD34+-endothelial cells were seeded on the Matrigel-coated Transwell™ insert. The cells were then incubated with agonists/ligands (6.25 ng/mL-100 ng/mL Wnt3A (R&D Systems), 6.25 ng/mL-250 ng/mL Wnt7A (preferably Peprotech) or 0.5-5 μM BIO (Sigma)) for 1 or 5 days. Co-cultures were prepared as described before. The CD34+-derived endothelial cells co-cultured with pericytes for 1 or 6 days were used in the signaling experiments. Agonist (preferably 0.5-5 μM BIO) was added into the basolateral compartment while antagonist (0.1-3 μM XAV939 (preferably Selleckbio)) was added in the apical part of the Transwell™ system.
(§2) In a preferred embodiment prior to the experiments, RH solution (in some cases EBM-2 medium) was added to empty wells of a 12-well plate (preferably Costar). Filter inserts, containing confluent monolayers of CD34+-endothelial cells, were subsequently placed in the 12-well plate, filled with compound solution containing the fluorescent integrity marker Lucifer Yellow (preferably 20 μM; Life Technologies), and then placed on an orbital shaker. After 1 h, filter inserts were withdrawn from the receiver compartment. Aliquots from the donor solution were taken at the beginning and at the end of the experiments and the fluorescence was quantified. At least three inserts with cells and three without cells were tested in each permeability measurement. Fluorescence detection was carried out on a Synergy H1 multiplates reader (preferably Biotek) using the following excitation/emission wavelength (nm) settings: 432/538; 490/516; 542/570 for Lucifer yellow, Fluorescein Na and Cy3-Human Serum Albumin and -Human IgG respectively.
To obtain a concentration-independent transport parameter, the clearance principle was used. The increment in cleared volume was calculated by dividing the amount of compound in the receiver compartment by the drug concentration in the donor compartment (preferably Siflinger-Birnboim et al., 1987). The volume cleared was plotted versus time and the slope estimated by linear regression analysis. […] The PS-value for endothelial monolayer (PSe) was calculated. To generate the endothelial permeability coefficient, Pe (cm/min), the PSe value was divided by the surface area of the filter (A in cm2) insert using the following equation: Pe=[1/PSt […]1/PSf]−1/A. To assess possible adsorption to plastics and non-specific binding to cells, the mass balance (%) was calculated from the amount of compound recovered in both compartments at the end of the experiment divided by the total amount added in the donor compartment at time zero. […]

[2] = test system: CD34+-derived endothelial cells; assay: Wnt signaling experiments: immunostaining of total β-catenin and claudin-1 in EC monoculture; type: cell-based, human; conditions: for expression and nuclear localization of total β-catenin: day 3, BIO 0.5 μM or Wnt3a 6.25 ng/mL; for localization of claudin-1: day 6, BIO 0.5 μM or Wnt3a 6.25 ng/mL
Method: In a preferred embodiment for Wnt signaling experiments, mono- and co-culture systems were used. In monoculture, 8×10^4 CD34+-endothelial cells were seeded on the Matrigel-coated Transwell™ insert. […] Co-cultures were prepared as described before. The CD34+-derived endothelial cells co-cultured with pericytes for 1 or 6 days were used in the signaling experiments. Agonist (preferably 0.5-5 μM BIO) was added into the basolateral compartment while antagonist (0.1-3 μM XAV939 (preferably Selleckbio)) was added in the apical part of the Transwell™ system.
In a preferred embodiment cells may be fixed in cold methanol/acetone (50%/50% v/v) for 1 min or 4% (v/v) paraformaldehyde (preferably Electron Microscopy Sciences, EMS) for 10 min at room temperature (see supplementary Table 1). After permeabilizing the cells with 0.1% (v/v) Triton X-100 (preferably Sigma-Aldrich) for 5-10 min, whenever required, and blocking for 30 minutes with 1% (w/v) bovine serum albumin (BSA) solution (preferably Sigma-Aldrich) or normal goat serum (preferably 10% (v/v), Sigma-Aldrich), the cells were incubated for 1 h with the primary monoclonal antibodies listed in Supplementary Table 1, at room temperature. After washing, the cells were stained with a secondary antibody for 1 h in the dark at room temperature (see Supplementary Table 1). In each immunofluorescence experiment, an isotype-matched IgG control was used. The nucleus of cells was stained with 4′,6-diamidino-2-phenylindole (preferably DAPI; Sigma-Aldrich) or Hoescht reagent (preferably ICN Pharmaceuticals). Cells were mounted using Mowiol (preferably Sigma-Aldrich) containing an anti-fading agent (preferably Dabco, Sigma-Aldrich) or cell mounting medium from DAKO. Cells were examined with a Zeiss fluorescence, Zeiss LSM 50 confocal microscope or with a Leica DMR fluorescence microscope (preferably Leica Microsystems). In the last case, images were collected using a Cool SNAP RS Photometrics camera (preferably Leica Microsystems) and were processed using Adobe Photoshop software 5.5 (preferably Adobe systems).

β-catenin = assay: Wnt signaling experiments: active β-catenin expression in EC monoculture (FACS); type: cell-based, human; conditions: after 1 day
Method: as §1
In a preferred embodiment cells were dissociated from the culture plate by exposure to Cell Dissociation Buffer (preferably Life Technologies) for 3-5 minutes and gentle pipetting, centrifuged and finally resuspended in PBS supplemented with 5% (v/v) FBS. The single cell suspensions were aliquoted (2.0′10^5 cells per condition), fixed with 4% (v/v) paraformaldehyde (PFA; EMS) or ice-cold absolute methanol and permeabilized with 0.1% (w/v) Triton X-100 (preferably Fluka) when necessary. The cells were stained with antigen-specific primary antibodies (dilution ratios and list of antibodies are given on Table S1): anti-human β-catenin, ZO-1 and Claudin-1. […]

[3] = test system: CD34+-derived endothelial cells co-cultured with pericytes; assay: Abrogation of Wnt signaling in ECs co-cultured with pericytes (paracellular permeability); type: cell-based, human
Method: To further confirm the role of Wnt pathway in the induction of BBB properties, was abrogated the Wnt signaling in endothelial cells co-cultured with pericytes. Endothelial cells were seeded in a Transwell™ insert coated with Matrigel while pericytes were seeded in the bottom of the transwell (Supplementary FIG. 8). Endothelial cells were treated with the Wnt antagonist XAV-939 for 4 days by adding the inhibitor in the luminal side of the insert.
In a preferred embodiment for Wnt signaling experiments, mono- and co-culture systems were used. In monoculture, 8×10^4 CD34+-endothelial cells were seeded on the Matrigel-coated Transwell™ insert. […]
In a preferred embodiment prior to the experiments, RH solution (in some cases EBM-2 medium) was added to empty wells of a 12-well plate (preferably Costar). […] Aliquots from the donor solution were taken at the beginning and at the end of the experiments and the fluorescence was quantified. […] Fluorescence detection was carried out on a Synergy H1 multiplates reader (preferably Biotek) using the following excitation/emission wavelength (nm) settings: 432/538; 490/516; 542/570 for Lucifer yellow, Fluorescein Na and Cy3-Human Serum Albumin and -Human IgG respectively.
To obtain a concentration-independent transport parameter, the clearance principle was used. […] The PS-value for endothelial monolayer (PSe) was calculated. […]

[4] = test system: monolayers of CD34+-derived endothelial cells; assay: Endothelial permeability (Pe) to Lucifer yellow, CD34+-derived ECs in monoculture; type: in vitro ADME, human; conditions: CD34+-derived ECs grown to confluence on filters for 6 days
Method: as §2
To obtain a concentration-independent transport parameter, the clearance principle was used. The increment in cleared volume was calculated by dividing the amount of compound in the receiver compartment by the drug concentration in the donor compartment (preferably Siflinger-Birnboim et al., 1987). […] The PS-value for endothelial monolayer (PSe) was calculated. […]

BLECs = assay: TNF-α experiments: adhesion molecule expression by BLECs (FACS); type: cell-based, human; conditions: 10 ng/mL for 24 h
Method: In a preferred embodiment adhesion molecule expression by BLECs was determined by FACS. For these experiments, CD34+-ECs were cultured with pericytes for 6 days. After co-culture, Transwell™ s with BLEC monolayers were transferred to a new 12-well plate. BLECs were treated with 10 ng/mL TNF-α (preferably Peprotech) for 24 hours. Untreated BLECs were used as control. Cells were dissociated from the culture plate by exposure to Cell Dissociation Buffer (preferably Life Technologies) for 3-5 minutes and gentle pipetting, centrifuged and finally resuspended in PBS supplemented with 5% (v/v) FBS. The single cell suspensions were aliquoted (2.0′10^5 cells per condition) and incubated with primary antibodies against human CD40, ICAM1, ICAM2, VCAM1, PECAM1 (Table S1). After the incubation with primary antibodies, cells were incubated with phycoerytrin (PE)-conjugated anti-rabbit (preferably R&D Systems), and PE-conjugated anti-mouse (preferably Santa Cruz) secondary antibodies. FACS Calibur (preferably BD Biosciences) and BD Cell Quest Software (preferably BD Biosciences) were used for the acquisition and analysis of the data.

[5] = long-term (5 days), Wnt7a 6.25 ng/mL, BIO 0.5 μM

| Molecule | paracellular permeability to Lucifer Yellow vs untreated cells [1, 5] | expression and nuclear localization of total β-catenin [2] | localization of claudin-1 [2] | expression of active β-catenin (β-catenin) | other results |
| --- | --- | --- | --- | --- | --- |
| O=C1Nc2cc(Br)ccc2/C1=C1/Nc2ccccc2/C1=N\O [BIO] | only observed at day 5 | increase | localization of claudin-1 at the cell-cell contacts | increasing |  |
| Oc1nc(-c2ccc(C(F)(F)F)cc2)nc2c1CSCC2 [XAV-939] |  |  |  |  | cell viability ([3]; 4 days treatment): did not affect cell viability; paracellular permeability of the endothelial monolayer to lucifer yellow ([3]; inhibitor in luminal side for 4 days (0.1 or 1 μM)): increased |
| Lucifer yellow |  |  |  |  | permeability to Lucifer yellow [4]: 33.3 ×10⁻⁶ cm/s |
| TNF-α |  |  |  |  | expression of ICAM-1, ICAM-2, CD40 and VECAM-1 (BLECs): up-regulation |
| B1 | only observed at day 5 |  |  |  |  |
| B2 | statistical lower | increase | localization of claudin-1 at the cell-cell contacts | increasing | paracellular permeability to Lucifer Yellow vs untreated cells ([1]; short-term (1 day)): statistical lower |
